Measurements: patent publication US6914121B2, “PEG-LHRH analog conjugates” (Applied Research Systems Ars Holding N.V., priority 1998, dated 2005)
In brackets after ≈: the same amount, converted by molar mass. Square brackets hold non-standard residues; d marks the D form. Peptide text beside a SMILES is read from it. * marks the point of attachment. Phe(4-Cl) = N[CH](Cc1ccc(Cl)cc1)C(=O)O; 2Nal = N[CH](Cc1ccc2ccccc2c1)C(=O)O; Lys(iPr) = CC(C)NCCCC[CH](N)C(=O)O; 3Pal = N[CH](Cc1cccnc1)C(=O)O; Nicotinoyl = O=C(c1cccnc1)*

Tests used:
[1] = Solubility of antide in isotonic media; format: physicochemical
[2] = previous formulations, e.g. antide 1 mg/ml in 5% glucose; cited from earlier work

- solubility ([1]; 0.9% NaCl solution): 25 µg/mL (≈ 15.7 µM)
- solubility ([1]; phosphate buffered saline): 16 µg/mL (≈ 10.1 µM)
Structure (SMILES): CC(=O)NC(Cc1ccc2ccccc2c1)C(=O)NC(Cc1ccc(Cl)cc1)C(=O)NC(Cc1cccnc1)C(=O)NC(CO)C(=O)NC(CCCCNC(=O)c1cccnc1)C(=O)NC(CCCCNC(=O)c1cccnc1)C(=O)NC(CC(C)C)C(=O)NC(CCCCNC(C)C)C(=O)N1CCCC1C(=O)NC(C)C(N)=O (stereo not drawn) [antide] (Ac-[2Nal][Phe(4-Cl)][3Pal]SK(Nicotinoyl)K(Nicotinoyl)L[Lys(iPr)]PA-NH2; configuration not given here)
- bioavailability [2]: poor bioavailability
